These results are taken from patent US20100029657A1, “Bridged, Bicyclic Heterocyclic or Spiro Bicyclic Heterocyclic Derivatives of Pyrazolo[1, 5-A]Pyrimidines, Methods for Preparation and Uses Thereof” (Wyeth, priority 2008, published 2010).

For this test, the target named is T1, Flag/GST-tagged recombinant human B-Raf (Homo sapiens, UniProt P15056).
T1 construct: Flag; GST; made in house; host or cells: Sf9 insect cells (B-Raf); E. coli (MEK1-GST)
In words: B-Raf kinase assay (phosphorylation of GST-MEK1, phospho-MEK1 antibody/Europium detection). The test is classed as biochemical. The conditions noted are these: B-Raf IC50 Data for compounds of Formula A; read-out: Mean IC50. In short, it runs like this:
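Percent inhibition was calculated at each compound concentration from Europium time-resolved fluorescence (anti-phospho-MEK1, then Eu-conjugated anti-rabbit) after GST capture. The upstream kinase step used GST-MEK1 with 0.2 nM B-Raf for 45 min at room temperature in MOPS buffer, pH 7.2. It was started with a cocktail of 200 μM ATP and 40 mM MgCl2.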

T1 sequence (P15056 whole entry): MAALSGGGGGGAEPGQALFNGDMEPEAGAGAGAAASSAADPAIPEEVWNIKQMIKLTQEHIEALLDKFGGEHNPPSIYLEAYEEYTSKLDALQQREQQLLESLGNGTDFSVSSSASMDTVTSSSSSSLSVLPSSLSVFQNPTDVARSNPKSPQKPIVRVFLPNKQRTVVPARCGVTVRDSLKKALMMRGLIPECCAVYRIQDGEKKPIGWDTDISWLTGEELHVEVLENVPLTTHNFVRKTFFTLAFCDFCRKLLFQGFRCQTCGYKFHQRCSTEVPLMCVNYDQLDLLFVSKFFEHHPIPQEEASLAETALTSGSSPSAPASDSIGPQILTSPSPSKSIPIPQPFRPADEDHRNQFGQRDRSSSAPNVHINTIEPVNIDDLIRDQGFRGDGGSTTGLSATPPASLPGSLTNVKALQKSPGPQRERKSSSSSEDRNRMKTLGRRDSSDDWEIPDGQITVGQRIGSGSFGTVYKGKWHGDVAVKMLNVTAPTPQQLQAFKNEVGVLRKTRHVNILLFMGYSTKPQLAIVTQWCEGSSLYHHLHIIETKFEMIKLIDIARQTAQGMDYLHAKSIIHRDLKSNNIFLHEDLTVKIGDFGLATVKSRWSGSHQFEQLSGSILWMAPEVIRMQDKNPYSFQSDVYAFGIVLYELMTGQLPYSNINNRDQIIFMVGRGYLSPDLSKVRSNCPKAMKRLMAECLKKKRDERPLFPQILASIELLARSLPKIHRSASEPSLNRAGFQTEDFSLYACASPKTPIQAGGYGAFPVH

In general, IC50 refers to the concentration at which inhibition is half-maximal. Consider `CC(C)(C)OC(=O)N1C[C@@H]2C[C@H]1CN2Cc1cc(-c2ccnc3c(-c4cccc5[nH]ncc45)c(-c4ccncc4)nn23)co1` [Example 194, tert-butyl (1S,4S)-5-({4-[3-(1H-indazol-4-yl)-2-pyridin-4-ylpyrazolo[1,5-a]pyrimidin-7-yl]furan-2-yl}methyl)-2,5-diazabicyclo[2.2.1]heptane-2-carboxylate], for which the IC50 worked out at 9.1 nM.
For `c1cc(-c2c(-c3ccncc3)nn3c(-c4coc(CN5C[C@@H]6C[C@H]5CN6)c4)ccnc23)c2cn[nH]c2c1` [Example 195, 7-{5-[(1S,4S)-2,5-diazabicyclo[2.2.1]hept-2-ylmethyl]furan-3-yl}-3-(1H-indazol-4-yl)-2-pyridin-4-ylpyrazolo[1,5-a]pyrimidine] the value was 13 nM; for `CC(C)(C)OC(=O)N1C[C@@H]2C[C@H]1CN2Cc1ccc(-c2ccnc3c(-c4cccc5[nH]ncc45)c(-c4ccncc4)nn23)s1` [Example 196, tert-butyl (1S,4S)-5-({5-[3-(1H-indazol-4-yl)-2-pyridin-4-ylpyrazolo[1,5-a]pyrimidin-7-yl]thiophen-2-yl}methyl)-2,5-diazabicyclo[2.2.1]heptane-2-carboxylate], 11.5 nM; for `c1cc(-c2c(-c3ccncc3)nn3c(-c4ccc(CN5C[C@@H]6C[C@H]5CO6)s4)ccnc23)c2cn[nH]c2c1` [Example 197, 3-(1H-indazol-4-yl)-7-{5-[(1S,4S)-2-oxa-5-azabicyclo[2.2.1]hept-5-ylmethyl]thiophen-2-yl}-2-pyridin-4-ylpyrazolo[1,5-a]pyrimidine], 5.7 nM.
As for `c1cc(-c2c(-c3ccncc3)nn3c(-c4ccc(CN5C[C@@H]6C[C@H]5CN6)s4)ccnc23)c2cn[nH]c2c1` [Example 198, 7-{5-[(1S,4S)-2,5-diazabicyclo[2.2.1]hept-2-ylmethyl]thiophen-2-yl}-3-(1H-indazol-4-yl)-2-pyridin-4-ylpyrazolo[1,5-a]pyrimidine], the figure is 3.6 nM; as for `CCOC(=O)N1[C@@H]2CC[C@H]1C[C@@H](c1c(C)cnc3c(-c4cccc5[nH]ncc45)c(-c4ccncc4)nn13)C2` [Example 199, ethyl (3-endo)-3-[3-(1H-indazol-4-yl)-6-methyl-2-pyridin-4-ylpyrazolo[1,5-a]pyrimidin-7-yl]-8-azabicyclo[3.2.1]octane-8-carboxylate], 5.5 nM.
As to `c1cc(-c2c(-c3ccncc3)nn3c(-c4ccc(N5CC6CCC(C5)O6)nc4)ccnc23)c2cn[nH]c2c1` [Example 200, 3-(1H-indazol-4-yl)-7-[6-(8-oxa-3-azabicyclo[3.2.1]oct-3-yl)pyridin-3-yl]-2-pyridin-4-ylpyrazolo[1,5-a]pyrimidine], the half-maximal inhibitory concentration (IC50) is 5.8 nM.
`c1cc(-c2c(-c3ccncc3)nn3c(-c4ccc(N5C[C@@H]6C[C@H]5CO6)nc4)ccnc23)c2cn[nH]c2c1` [Example 201, 3-(1H-indazol-4-yl)-7-{6-[(1S,4S)-2-oxa-5-azabicyclo[2.2.1]hept-5-yl]pyridin-3-yl}-2-pyridin-4-ylpyrazolo[1,5-a]pyrimidine]: the IC50 was 8.4 nM.
As for `CC(C)(C)OC(=O)N1C[C@@H]2C[C@H]1CN2Cc1cccc(-c2ccnc3c(-c4cccc5[nH]ncc45)c(-c4ccncc4)nn23)c1` [Example 202, tert-butyl (1S,4S)-5-{3-[3-(1H-indazol-4-yl)-2-pyridin-4-ylpyrazolo[1,5-a]pyrimidin-7-yl]benzyl}-2,5-diazabicyclo[2.2.1]heptane-2-carboxylate], the figure is greater than 100 nM.
For `CC(C)(C)OC(=O)N1C[C@@H]2C[C@H]1CN2Cc1ccc(-c2ccnc3c(-c4cccc5[nH]ncc45)c(-c4ccncc4)nn23)cc1` [Example 203, tert-butyl (1S,4S)-5-{4-[3-(1H-indazol-4-yl)-2-pyridin-4-ylpyrazolo[1,5-a]pyrimidin-7-yl]benzyl}-2,5-diazabicyclo[2.2.1]heptane-2-carboxylate] the value was 12 nM.
For `c1cc(-c2c(-c3ccncc3)nn3c(-c4ccc(CN5C[C@@H]6C[C@H]5CO6)cc4)ccnc23)c2cn[nH]c2c1` [Example 204, 3-(1H-indazol-4-yl)-7-{4-[(1S,4S)-2-oxa-5-azabicyclo[2.2.1]hept-5-ylmethyl]phenyl}-2-pyridin-4-ylpyrazolo[1,5-a]pyrimidine] the value was 10 nM; for `Fc1cc(CN2C[C@@H]3C[C@H]2CN3)ccc1-c1ccnc2c(-c3cccc4[nH]ncc34)c(-c3ccncc3)nn12` [Example 205, 7-{4-[(1S,4S)-2,5-diazabicyclo[2.2.1]hept-2-ylmethyl]-2-fluorophenyl}-3-(1H-indazol-4-yl)-2-pyridin-4-ylpyrazolo[1,5-a]pyrimidine], 0.35 nM.
Consider `Fc1cc(CN2C[C@@H]3C[C@H]2CO3)ccc1-c1ccnc2c(-c3cccc4[nH]ncc34)c(-c3ccncc3)nn12` [Example 206, 7-{2-fluoro-4-[(1S,4S)-2-oxa-5-azabicyclo[2.2.1]hept-5-ylmethyl]phenyl}-3-(1H-indazol-4-yl)-2-pyridin-4-ylpyrazolo[1,5-a]pyrimidine], for which the IC50 was determined as 1.5 nM.
In the case of `Fc1cc(CN2C[C@H]3C[C@@H]2CO3)ccc1-c1ccnc2c(-c3cccc4[nH]ncc34)c(-c3ccncc3)nn12` [Example 207, 7-{2-fluoro-4-[(1R,4R)-2-oxa-5-azabicyclo[2.2.1]hept-5-ylmethyl]phenyl}-3-(1H-indazol-4-yl)-2-pyridin-4-ylpyrazolo[1,5-a]pyrimidine], the IC50 came to 0.5 nM.
For `c1cc(CN2C[C@@H]3C[C@H]2CN3)cc(-c2ccnc3c(-c4cccc5[nH]ncc45)c(-c4ccncc4)nn23)c1` [Example 208, 7-{3-[(1S,4S)-2,5-diazabicyclo[2.2.1]hept-2-ylmethyl]phenyl}-3-(1H-indazol-4-yl)-2-pyridin-4-ylpyrazolo[1,5-a]pyrimidine] the value was 42 nM; for `c1cc(-c2c(-c3ccncc3)nn3c(-c4ccc(CN5C[C@@H]6C[C@H]5CN6)cc4)ccnc23)c2cn[nH]c2c1` [Example 209, 7-{4-[(1S,4S)-2,5-diazabicyclo[2.2.1]hept-2-ylmethyl]phenyl}-3-(1H-indazol-4-yl)-2-pyridin-4-ylpyrazolo[1,5-a]pyrimidine], 0.6 nM; for `Fc1cc(CN2C3COCC2COC3)ccc1-c1ccnc2c(-c3cccc4[nH]ncc34)c(-c3ccncc3)nn12` [Example 210, 9-{3-fluoro-4-[3-(1H-indazol-4-yl)-2-pyridin-4-ylpyrazolo[1,5-a]pyrimidin-7-yl]benzyl}-3,7-dioxa-9-azabicyclo[3.3.1]nonane], 0.7 nM.
With “Ethyl 3-[3-(2-oxo-2,3-dihydro-1H-pyrrolo[2,3-b]pyridin-4-yl)-2-pyridin-4-ylpyrazolo[1,5-a]pyrimidin-7-yl-8-azabicyclo[3.2.1]octane-8-carboxylate [Example 86]”, the IC50 is 270 nM.
